Laboratory results from EP0394283B1, “USE OF A TRIPEPTIDE FOR THE PREPARATION OF PHARMACEUTICAL COMPOSITIONS AND A PHARMACEUTICAL COMPOSITION AND METHOD” (Hafslund Nycomed AS, priority 1987, dated 1992).
Residues, ends and D or L forms follow the SMILES beside them.

System: large intestinal epithelium
Test: Mitotic rate (Colcemid-arrested metaphases per 500 crypt cells) in the large intestinal epithelium after i.p. injection
Type: in vivo, hairless mice
Conditions: dose of 10⁻¹² mole per animal, at the doses and times tested
Protocol: All in vivo experiments were performed with hairless mice at 0800-0900 AM. The fractions were suspended in distilled water, slightly acidified (pH=6) and injected i.p. at different doses dependent on the purity of the fraction. The controls received solvent only. The pattern of cell proliferation after injecting the peptide was examined by varying the time between treatment and sacrifice.
Two hours before sacrifice (except for the experiments testing tissue specificity in the kidney) all animals received Colcemid 0.15 mg per animal i.p. ³HTdR (tritiated thymidine) was injected 30 minutes before sacrifice (30 µCi per animal i.p.). […]
Mitotic rate: After routine dehydration and paraffin embedding, sections were cut at 5 µm and stained with haematoxylin. Colcemid-arrested mitoses per 500 crypt cells were determined in ten longitudinally cut crypts in ileum and colon. […] The number of accumulated metaphases in epidermis was determined by counting 25 vision fields of interfollicular epidermis (eyepiece 12.5, objective 40) and expressed as mitoses per vision field per 2h.

In the case of `O=C(O)CC[C@H](NC(=O)[C@@H]1CCC(=O)N1)C(=O)N[C@@H](CC(=O)O)C(=O)N[C@@H](CO)C(=O)NCC(=O)O` [pGlu-Glu-Asp-Ser-Gly(OH)] (HELM PEPTIDE1{[Glp].E.D.S.G}$$$$V2.0), the “cell proliferation in the large intestinal epithelium” value is reported as “unchanged”.
